Measurements: paper PMC8741576 (Molecular Diversity, 2022)
Where two headings read alike, the source gives them in different places.

Experiments:
[1] = system: DND-41 acute lymphoblastic leukemia cells; assay: Antiproliferative screening, IncuCyte cell growth; assay type: cell-based; conditions: Homo sapiens
[2] = system: Capan-1 pancreatic adenocarcinoma cells; assay: Antiproliferative screening, MTS cell viability assay; assay type: cell-based; conditions: Homo sapiens
[3] = system: NCI-H460 lung carcinoma cells; assay: as above; assay type: cell-based; conditions: Homo sapiens
[4] = system: K-562 chronic myeloid leukemia cells; assay: Antiproliferative screening, IncuCyte cell growth; assay type: cell-based; conditions: Homo sapiens
[5] = system: Z-138 non-Hodgkin lymphoma cells; assay: Antiproliferative screening, IncuCyte cell growth; assay type: cell-based; conditions: Homo sapiens
[6] = system: HCT-116 colorectal carcinoma cells; assay: Antiproliferative screening, MTS cell viability assay; assay type: cell-based; conditions: Homo sapiens
[7] = system: HEL 299 normal human lung fibroblasts; assay: Antiproliferative screening on noncancerous cells; conditions: for IC50: Homo sapiens, HEL 299, read-out: IC50 HEL 299; for Cytotoxicity against noncancerous cells in words: HEL 299
[8] = system: LN-229 glioblastoma cells; assay: Antiproliferative screening, MTS cell viability assay; assay type: cell-based; conditions: Homo sapiens
[9] = system: HL-60 acute myeloid leukemia cells; assay: Antiproliferative screening, IncuCyte cell growth; assay type: cell-based; conditions: Homo sapiens
in vitro = conditions: human
human coronavirus 229E = conditions: HEL cell culture
[10] = Cytotoxicity in MT-4 cell culture; assay type: cell-based; conditions: human, MT-4 cells
[11] = DND41, 72 h, read-out: IC50 DND-41
[12] = CAPAN-1, 72 h, read-out: IC50 Capan-1
[13] = NCI-H460, 72 h, read-out: IC50 NCI-H460
[14] = K562, 72 h, read-out: IC50 K-562
[15] = Z-138, 72 h, read-out: IC50 Z-138
[16] = HCT-116, 72 h, read-out: IC50 HCT-116
[17] = LN-229, 72 h, read-out: IC50 LN-229
[18] = HL-60, 72 h, read-out: IC50 HL-60
[19] = CAPAN-1, read-out: IC50 Capan-1
[20] = NCI-H460, read-out: IC50 NCI-H460
[21] = HCT-116, read-out: IC50 HCT-116

| Compound | IC50 [1, 11] [µM] | IC50 [2, 12] [µM] | IC50 [3, 13] [µM] | IC50 [4, 14] [µM] | IC50 [5, 15] [µM] | IC50 [6, 16] [µM] | IC50 [7] [µM] | IC50 [8, 17] [µM] | IC50 [9, 18] [µM] | other results |
| --- | --- | --- | --- | --- | --- | --- | --- | --- | --- | --- |
| O=C(NCCCCNc1ccnc2cc(Cl)ccc12)c1ccccc1NCc1ccccc1 [Compound 1, 2-(Benzylamino)-N-{4-[(7-chloroquinolin-4-yl)amino]butyl}benzamide] | > 100 | 57.6 ± 14.6 | > 100 | 55.7 ± 10 | > 100 | > 100 | 8 ± 4.4 | 53.5 ± 12.2 | > 100 | – |
| CC(C)(C)OC(=O)Nc1cc(Cl)ccc1C(=O)NCCCCNc1ccnc2cc(Cl)ccc12 [Compound 2, tert-Butyl {5-chloro-2-[[4-[(7-chloroquinolin-4-yl)amino]butyl]carbamoyl]phenyl}carbamate] | 46.2 ± 1.9 | 20.4 ± 9 | 21.2 ± 10 | 54.5 ± 18.5 | 28.6 ± 14.6 | 32.4 ± 20 | > 100 | 30.1 ± 2.1 | 41.5 ± 17 | Cytotoxicity against noncancerous cells in words [7]: no cytotoxicity against noncancerous cells |
| CC(C)(C)OC(=O)Nc1ccc(Br)cc1C(=O)NCCCCNc1ccnc2cc(Cl)ccc12 [Compound 3, tert-Butyl {4-bromo-2-[[4-[(7-chloroquinolin-4-yl)amino]butyl]carbamoyl]phenyl}carbamate] | 51.3 ± 4.4 | 40.6 ± 4.2 | 69.3 ± 30.7 | 51.2 ± 9.3 | 55.2 ± 9.2 | 66.1 ± 30 | > 100 | 48.4 ± 20 | 60.5 ± 17 | Cytotoxicity against noncancerous cells in words [7]: no cytotoxicity against noncancerous cells |
| COc1cc(NC(C)CCCNC(=O)c2ccccc2NCc2ccccc2)c2ncccc2c1 (stereo not drawn) [Compound 4, 2-(Benzylamino)-N-{4-[(6-methoxyquinolin-8-yl)amino]pentyl}benzamide] | > 100 | > 100 | > 100 | > 100 | > 100 | > 100 | > 100 | > 100 | > 100 | – |
| COc1cc(NC(C)CCCNC(=O)c2ccc(Cl)cc2NC(=O)OC(C)(C)C)c2ncccc2c1 (stereo not drawn) [Compound 5, tert-Butyl {5-chloro-2-[[4-[(6-methoxyquinolin-8-yl)amino]pentyl]carbamoyl]phenyl}carbamate] | > 100 | > 100 | > 100 | > 100 | > 100 | > 100 | > 100 | > 100 | > 100 | – |
| COc1cc(NC(C)CCCNC(=O)c2cc(Br)ccc2NC(=O)OC(C)(C)C)c2ncccc2c1 (stereo not drawn) [Compound 6, tert-Butyl {4-bromo-2-[[4-[(6-methoxyquinolin-8-yl)amino]pentyl]carbamoyl]phenyl}carbamate] | > 100 | > 100 | > 100 | > 100 | > 100 | > 100 | > 100 | > 100 | > 100 | – |
| Cc1nc(CNC(=O)c2ccccc2NCc2ccccc2)cc2c1[nH]c1ccccc12 [Compound 7, 2-(Benzylamino)-N-[(1-methyl-9H-pyrido[3,4-b]indol-3-yl)methyl]benzamide] | 53.5 ± 6.7 | 27.5 ± 8.1 | 28.4 ± 4 | 90.7 ± 18.5 | 21 ± 10.1 | 34.6 ± 6 | 50.9 ± 2.7 | 35.8 ± 9.3 | 66.2 ± 18.3 | – |
| Cc1nc(CNC(=O)c2ccc(Cl)cc2NC(=O)OC(C)(C)C)cc2c1[nH]c1ccccc12 [Compound 8, tert-Butyl {5-chloro-2-[[(1-methyl-9H-pyrido[3,4-b]indol-3-yl)methyl]carbamoyl]phenyl}carbamate] | 32.1 ± 20.8 | 6.5 ± 2.9 | 8.3 ± 4.3 | 29.1 ± 21.3 | 8.2 ± 1.9 | 28.9 ± 24.1 | 7.1 ± 1.8 | 20.8 ± 13.8 | 6.7 ± 0.2 | – |
| Cc1nc(CNC(=O)c2cc(Br)ccc2NC(=O)OC(C)(C)C)cc2c1[nH]c1ccccc12 [Compound 9, tert-Butyl {4-bromo-2-[[(1-methyl-9H-pyrido[3,4-b]indol-3-yl)methyl]carbamoyl]phenyl}carbamate] | 12.5 ± 6.9 | 5.8 ± 3 | 3.2 ± 1.8 | 63.1 ± 36.9 | 4.1 ± 1.8 | 32.9 ± 7.9 | 7.5 ± 1 | 8.3 ± 3.1 | 10.8 ± 3.3 | – |
| O=C(NCCCCNc1ccnc2ccccc12)c1ccccc1NCc1ccccc1 [Compound 10, 2-(Benzylamino)-N-[4-(quinolin-4-ylamino)butyl]benzamide] | 8 ± 3.2 | 4.2 ± 3.4 | 2.2 ± 0.8 | 5.9 ± 3.5 | 4.6 ± 2 | 7.4 ± 1.5 | 33.6 ± 15.6 | 3 ± 2 | 14.9 ± 7.3 | CC50 (in vitro): 5.6 ± 3 µM; SI, selectivity index (CC50 to EC50 ratio) 229E (human coronavirus 229E): > 7 |
| Nc1ccccc1C(=O)NCCCCNc1ccnc2ccccc12 [Compound 11, 2-Amino-N-[4-(quinolin-4-ylamino)butyl]benzamide] | 59.6 ± 1.7 | 62.2 ± 9.7 | 87.4 ± 12.6 | 18.7 ± 6.7 | 31.2 ± 1.1 | 45.4 ± 4.9 | 41.6 ± 1.2 | 39.7 ± 4.4 | 44.7 ± 11 | CC50 (in vitro): 46.3 ± 1.2 µM; SI, selectivity index (CC50 to EC50 ratio) 229E (human coronavirus 229E): 6.0 |
| COc1cc(NC(C)CCCNC(=O)c2ccc(Cl)cc2N)c2ncccc2c1 (stereo not drawn) [Compound 15, 2-Amino-4-chloro-N-{4-[(6-methoxyquinolin-8-yl)amino]pentyl}benzamide] | > 100 | > 100 | > 100 | > 100 | > 100 | > 100 | > 100 | > 100 | > 100 | – |
| Cc1nc(CNC(=O)c2ccccc2N)cc2c1[nH]c1ccccc12 [Compound 17, 2-Amino-N-[(1-methyl-9H-pyrido[3,4-b]indol-3-yl)methyl]benzamide] | 61.5 ± 2.1 | 31.4 ± 1.9 | 54.8 ± 5.9 | 52 ± 5.3 | 35.1 ± 4.5 | 48.4 ± 3.8 | 32.8 ± 3.3 | 41 ± 0.3 | 44 ± 8.4 | – |
| Cc1nc(CNC(=O)c2ccc(Cl)cc2N)cc2c1[nH]c1ccccc12 [Compound 18, 2-Amino-4-chloro-N-[(1-methyl-9H-pyrido[3,4-b]indol-3-yl)methyl]benzamide] | > 100 | 56.3 ± 24.1 | 43.8 ± 8.4 | > 100 | > 100 | 55 ± 17.7 | > 100 | 44 ± 7.6 | > 100 | – |
| Cc1nc(CNC(=O)c2cc(Br)ccc2N)cc2c1[nH]c1ccccc12 [Compound 19, 2-Amino-5-bromo-N-[(1-methyl-9H-pyrido[3,4-b]indol-3-yl)methyl]benzamide] | 68.3 ± 12.2 | 38.9 ± 5.8 | 55 ± 5 | 64.9 ± 4.9 | 55.5 ± 12.1 | 60.8 ± 31 | 82.6 ± 17.4 | 46.2 ± 7.5 | 66.3 ± 34 | – |
| CC(=O)O[C@@]12CO[C@@H]1C[C@H](O)[C@@]1(C)C(=O)[C@H](O)C3=C(C)[C@@H](OC(=O)[C@H](O)[C@@H](NC(=O)OC(C)(C)C)c4ccccc4)C[C@@](O)([C@@H](OC(=O)c4ccccc4)[C@H]21)C3(C)C [DTX, docetaxel, reference compound] | – | – | – | – | – | – | – | – | – | IC50 ([1]; DND41, read-out: IC50 DND-41): 0.0055 ± 0.003 µM; IC50 [2, 19]: 0.01 ± 0.003 µM; IC50 [3, 20]: 0.0271 ± 0.003 µM; IC50 ([4]; K562, read-out: IC50 K-562): 0.0089 ± 0.003 µM; IC50 ([5]; Z-138, read-out: IC50 Z-138): 0.0025 ± 0.003 µM; IC50 [6, 21]: 0.0025 ± 0.003 µM; IC50 ([8]; LN-229, read-out: IC50 LN-229): 0.0018 ± 0.003 µM; IC50 ([9]; HL-60, read-out: IC50 HL-60): 0.0137 ± 0.003 µM |
| N#C[C@@]1(c2ccc3c(N)ncnn23)O[C@H](CO)[C@@H](O)[C@H]1O [GS-441524] | – | – | – | – | – | – | – | – | – | CC50 (in vitro): > 100 µM |
| Cc1nc(CN)cc2c1[nH]c1ccccc12 [HA, (1-methyl-9H-pyrido[3,4-b]indol-3-yl)methanamine, reference compound] | > 100 | 68.6 ± 3.4 | 85.1 ± 14.8 | > 100 | 57.4 ± 32.6 | > 100 | > 100 | > 100 | > 100 | CC50 at 5 days [10]: 22.3 ± 4.9 µM; CC50 (in vitro): > 100 µM |
| CN[C@@H]1C[C@H]2O[C@@](C)([C@@H]1OC)n1c3ccccc3c3c4c(c5c6ccccc6n2c5c31)C(=O)NC4 [STS, staurosporine, reference compound] | – | – | – | – | – | – | – | – | – | IC50 [2, 19]: 0.0382 ± 0.003 µM; IC50 [3, 20]: 0.0384 ± 0.003 µM; IC50 [6, 21]: 0.0687 ± 0.003 µM; IC50 ([9]; HL-60, read-out: IC50 HL-60): 0.0598 ± 0.003 µM |
